Test system: human umbilical vein endothelial cells (HUVEC)
Assay: HUVEC proliferation assay
Format: cell-based
Conditions: Homo sapiens, HUVEC, 10 nM; crude combinatorial urea library; read-out: Inhibition of HUVEC Proliferation % inhibition @ 10 nM
Description: HUVEC Proliferation Assay
This assay determines the ability of a test compound to inhibit the growth factor-stimulated proliferation of human umbilical vein endothelial cells (“HUVEC”). HUVEC cells (passage 3-4, Clonetics, Corp.) were thawed into EGM2 culture medium (Clonetics Corp) in T75 flasks. Fresh EGM2 medium was added to the flasks 24 hours later. Four or five days later, cells were exposed to another culture medium (F12K medium supplemented with 10% fetal bovine serum (FBS), 60 μg/ml endothelial cell growth supplement (ECGS), and 0.1 mg/ml heparin). Exponentially-growing HUVEC cells were used in experiments thereafter. Ten to twelve thousand HUVEC cells were plated in 96-well dishes in 100 μl of rich, culture medium (described above). The cells were allowed to attach for 24 hours in this medium. The medium was then removed by aspiration and 105 μl of starvation media (F12K+1% FBS) was added to each well. After 24 hours, 15 μl of test agent dissolved in 1% DMSO in starvation medium or this vehicle alone was added into each treatment well; the final DMSO concentration was 0.1%. One hour later, 30 μl of VEGF (30 ng/ml) in starvation media was added to all wells except those containing untreated controls; the final VEGF concentration was 6 ng/ml. Cellular proliferation was quantified 72 hours later by MTT dye reduction, at which time cells were exposed for 4 hours MTT (Promega Corp.). Dye reduction was stopped by addition of a stop solution (Promega Corp.) and absorbance at 595 λ was determined on a 96-well spectrophotometer plate reader.
IC50 values were calculated by curve-fitting the response of A^595 to various concentrations of the test agent; typically, seven concentrations separated by 0.5 log were employed, with triplicate wells at each concentration. For screening compound library plates, one or two concentrations (one well per concentration) were employed, and the % inhibition was calculated by the following formula:
% inhibition=(control−test) divided by (control−starvation) […]
control=A^595 when VEGF is present without test agent test=A^595 when VEGF is present with test agent starvation=A^595 when VEGF and test agent are both absent.

| SMILES | inhibition at 0.01 µM [%] |
| --- | --- |
| COc1cccc(C(=O)Nc2cccc(-c3csc(-c4sc(NC(=O)NC5CCS(=O)(=O)C5)nc4N)n3)c2)c1 (stereo not drawn) | 9 |
| COc1cccc(C(=O)Nc2cccc(-c3csc(-c4sc(NC(=O)NCCc5c[nH]cn5)nc4N)n3)c2)c1 | 1 |
| CCCCN(CCCC)CCCNC(=O)Nc1nc(N)c(-c2nc(-c3cccc(NC(=O)c4cccc(OC)c4)c3)cs2)s1 | -5 |
| COc1cccc(C(=O)Nc2cccc(-c3csc(-c4sc(NC(=O)NCC(C)(C)CO)nc4N)n3)c2)c1 | 7 |
| COc1cccc(C(=O)Nc2cccc(-c3csc(-c4sc(NC(=O)NCC(O)CO)nc4N)n3)c2)c1 (stereo not drawn) | -3 |
| COc1cccc(C(=O)Nc2cccc(-c3csc(-c4sc(NC(=O)NCS(=O)(=O)O)nc4N)n3)c2)c1 | -8 |

Same assay, conditions: Homo sapiens, HUVEC, 50 nM; crude combinatorial urea library; read-out: Inhibition of HUVEC Proliferation % inhibition @ 50 nM

| SMILES | inhibition at 0.05 µM [%] |
| --- | --- |
| COc1cccc(C(=O)Nc2cccc(-c3csc(-c4sc(NC(=O)NC5CCS(=O)(=O)C5)nc4N)n3)c2)c1 (stereo not drawn) | 86 |
| COc1cccc(C(=O)Nc2cccc(-c3csc(-c4sc(NC(=O)NCCc5c[nH]cn5)nc4N)n3)c2)c1 | -43 |
| CCCCN(CCCC)CCCNC(=O)Nc1nc(N)c(-c2nc(-c3cccc(NC(=O)c4cccc(OC)c4)c3)cs2)s1 | 62 |
| COc1cccc(C(=O)Nc2cccc(-c3csc(-c4sc(NC(=O)NCC(C)(C)CO)nc4N)n3)c2)c1 | 88 |
| COc1cccc(C(=O)Nc2cccc(-c3csc(-c4sc(NC(=O)NCC(O)CO)nc4N)n3)c2)c1 (stereo not drawn) | 42 |
| COc1cccc(C(=O)Nc2cccc(-c3csc(-c4sc(NC(=O)NCS(=O)(=O)O)nc4N)n3)c2)c1 | 8 |

Same assay, conditions: Homo sapiens, HUVEC, Inhibition of HUVEC Proliferation; 50 nM; crude combinatorial urea library; read-out: % inhibition @ 50 nM

| SMILES | inhibition at 0.05 µM [%] |
| --- | --- |
| COc1cccc(C(=O)Nc2cc(-c3csc(-c4sc(NC(=O)NCC(C)(C)N)nc4N)n3)c(F)cc2F)c1 | 73 |
| COc1cccc(C(=O)Nc2cc(-c3csc(-c4sc(NC(=O)NCCc5cncn5C)nc4N)n3)c(F)cc2F)c1 | 58 |
| COc1cccc(C(=O)Nc2cc(-c3csc(-c4sc(NC(=O)NC5CCN(Cc6ccccc6)CC5)nc4N)n3)c(F)cc2F)c1 | 66 |
| CNC(=O)Nc1nc(N)c(-c2nc(-c3cc(NC(=O)c4cccc(OC)c4)c(F)cc3F)cs2)s1 | 99 |
| COc1cccc(C(=O)Nc2cc(-c3csc(-c4sc(NC(=O)NCCCN5CCCC5=O)nc4N)n3)c(F)cc2F)c1 [drawing 675] | 105 |
| COc1cccc(C(=O)Nc2cc(-c3csc(-c4sc(NC(=O)NCC(=N)N)nc4N)n3)c(F)cc2F)c1 | 17 |
| COc1cccc(C(=O)Nc2cc(-c3csc(-c4sc(NC(=O)NCc5ccc(N)cc5)nc4N)n3)c(F)cc2F)c1 | 83 |
| COc1cccc(C(=O)Nc2cc(-c3csc(-c4sc(NC(=O)NCC(N)=O)nc4N)n3)c(F)cc2F)c1 | 48 |
| COc1cccc(C(=O)Nc2cc(-c3csc(-c4sc(NC(=O)NCC(F)(F)F)nc4N)n3)c(F)cc2F)c1 | 2 |

Same assay, conditions: Homo sapiens, HUVEC, Inhibition of HUVEC Proliferation; 50 nM; crude combinatorial urea library; read-out: Inhibition @ 50 nM

| SMILES | inhibition at 0.05 µM [%] |
| --- | --- |
| COc1cccc(C(=O)Nc2cc(-c3noc(-c4sc(NC(=O)NCCOCCO)nc4N)n3)c(F)cc2F)c1 [drawing 787] | 98 |
| CCN(CCNC(=O)Nc1nc(N)c(-c2nc(-c3cc(NC(=O)c4cccc(OC)c4)c(F)cc3F)no2)s1)c1cccc(C)c1 | 67 |
| COCC(C)NC(=O)Nc1nc(N)c(-c2nc(-c3cc(NC(=O)c4cccc(OC)c4)c(F)cc3F)no2)s1 (stereo not drawn) | 80 |
| COc1cccc(C(=O)Nc2cc(-c3noc(-c4sc(NC(=O)NCCCN5CCCCC5C)nc4N)n3)c(F)cc2F)c1 (stereo not drawn) | 96 |
| COc1cccc(C(=O)Nc2cc(-c3noc(-c4sc(NC(=O)NCCC(C)=O)nc4N)n3)c(F)cc2F)c1 | 6 |

Same assay, conditions: Homo sapiens, HUVEC, Table I screening results; 150 nM; crude combinatorial amide library

| SMILES | inhibition at 0.15 µM [%] |
| --- | --- |
| COc1cc(Nc2nc(N)c(-c3nc(-c4cccc(NC(=O)C#Cc5ccccc5)c4)cs3)s2)cc(OC)c1OC | -25 |
| COc1cc(Nc2nc(N)c(-c3nc(-c4cccc(NC(=O)CCc5c[nH]c6ccccc56)c4)cs3)s2)cc(OC)c1OC | -4 |
| COc1cc(Nc2nc(N)c(-c3nc(-c4cccc(NC(=O)/C=C/c5c[nH]c6ccccc56)c4)cs3)s2)cc(OC)c1OC | 5 |
| COc1cc(Nc2nc(N)c(-c3nc(-c4cccc(NC(=O)CN5C(=O)CSC5=O)c4)cs3)s2)cc(OC)c1OC | 17 |

From patent US6620828B2, “Thiazole compounds and pharmaceutical compositions for inhibiting protein kinases and methods for their use” (Agouron Pharmaceuticals, Inc., priority 1999, dated 2003)
